Reference: US7842703B2, “Substituted benzofused derivatives and their use as vanilloid receptor ligands” (Glenmark Pharmaceuticals S.A., priority 2005, dated 2010)

What was measured:
[1] = target: T1, Human TRPV1 expressing CHO cells (Homo sapiens, UniProt Q8NER1); experiment: Screening for TRPV1 antagonist using the 45Calcium uptake assay (inhibition of capsaicin induced cellular uptake of radioactive calcium); assay type: cell-based; conditions: for inhibition at 1 µM: CHO, test compound 1 μM, capsaicin 250 nM, relative to maximum ^45Ca uptake induced by capsaicin alone; for IC50: inhibition of capsaicin (250 nM) induced ^45Ca uptake
T1 construct: expressed in transfected cells; host or cells: CHO cells under G-418 selection
T1 sequence (Q8NER1 whole entry): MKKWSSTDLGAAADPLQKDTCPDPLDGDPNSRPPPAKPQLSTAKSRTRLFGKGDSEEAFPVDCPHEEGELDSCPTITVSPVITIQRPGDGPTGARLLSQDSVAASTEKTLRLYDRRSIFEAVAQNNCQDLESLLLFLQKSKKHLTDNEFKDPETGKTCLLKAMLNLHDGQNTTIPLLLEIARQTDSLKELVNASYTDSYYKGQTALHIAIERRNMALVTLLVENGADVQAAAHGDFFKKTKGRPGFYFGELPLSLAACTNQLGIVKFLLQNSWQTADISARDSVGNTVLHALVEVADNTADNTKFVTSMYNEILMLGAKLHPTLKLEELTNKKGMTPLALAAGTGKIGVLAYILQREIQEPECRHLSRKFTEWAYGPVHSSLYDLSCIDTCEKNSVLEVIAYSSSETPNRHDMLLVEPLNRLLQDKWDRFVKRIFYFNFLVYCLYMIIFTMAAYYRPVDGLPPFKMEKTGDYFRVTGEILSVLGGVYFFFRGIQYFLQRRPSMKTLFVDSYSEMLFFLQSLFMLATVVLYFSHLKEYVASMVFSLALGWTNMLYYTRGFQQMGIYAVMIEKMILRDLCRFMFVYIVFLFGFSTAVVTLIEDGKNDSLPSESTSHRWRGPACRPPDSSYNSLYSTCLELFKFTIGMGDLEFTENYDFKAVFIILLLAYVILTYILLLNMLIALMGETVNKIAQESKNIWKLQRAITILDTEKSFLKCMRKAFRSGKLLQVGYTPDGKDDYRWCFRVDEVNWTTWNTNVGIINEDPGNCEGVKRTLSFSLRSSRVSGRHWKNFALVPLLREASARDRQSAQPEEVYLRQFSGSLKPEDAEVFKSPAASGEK

SMILES	inhibition at 1 µM [1] [%]	IC50 [1] [nM]	melting point [°C]
O=C(Nc1cccc2cnccc12)NC1CC2(CCC2)Oc2c(O)cccc21 (racemic) [Example 61, (±) 1-(3,4-Dihydro-8-hydroxy-spiro[2H-1-benzopyran-2,1′-cyclobutane]-4-yl)-3-(isoquinolin-5-yl)urea]	> 50	775	246 to 247
S=C(Nc1cccc2cnccc12)NC1CC2(CCC2)Oc2ccccc21 (stereo not drawn) [Example 80, N′-isoquinolin-5-yl-N-3,3′,4,4′-tetrahydro-2′H-spiro[chromene-2,1′-cyclobutan]-4-ylthiourea(N′-isoquinolin-5-yl-N-3,4-dihydro-2H-spiro[chromene-2,1′-cyclobutan]-4-ylthiourea)]	> 50	49	187 to 188
